# Assay results taken from paper PMC11191317, “PNSC928, a plant-derived compound, specifically disrupts CtBP2-p300 interaction and reduces inflammation in mice with acute respiratory distress syndrome” (Biology Direct, 2024).
# System: ARDS mice
# Assay: LPS-induced ARDS mouse model
# Type: in vivo
# Description: All animal experiments were performed following a protocol reviewed and approved by the Institutional Animal Care and Use Committee at Jiangxi Provincial People’s Hospital. We procured C57BL/6 mice from Charles River Laboratories (Beijing, China) and maintained them in specific pathogen-free (SPF) conditions, with a 12-hour light/dark cycle and free access to food and sterile water. We established the ARDS mouse model by administering LPS via tracheal intubation, following an established protocol. Briefly, mice (eight-week-old, half male and half female, 22–25 g) were anesthetized using isoflurane inhalation and randomly classified into Control and ARDS groups. Control mice received 50 µL sterile saline, while ARDS mice were given 25 µg LPS (Sigma-Aldrich, Shanghai, China; #LPS25) in 50 µL sterile saline. Mice were immediately positioned upright and rotated to evenly distribute the LPS within the lungs.
# To assess the impact of CtBP2, p300, NF-κB inhibitors, and PNSC928 on ARDS progression, mice were further categorized post-4 h LPS administration into different groups: ARDS, ARDS + MTOB (700 mg/kg; MedChemExpress; Monmouth Junction, NJ; #HY-135,046), ARDS + NSC95397 (1.5 mg/kg; MedChemExpress; #HY-108,543), ARDS + C646 (10 mg/kg; MedChemExpress; #HY-13,823), ARDS + A-485 (50 mg/kg; MedChemExpress; #HY-107,455), ARDS + TPCA1 (10 mg/kg; MedChemExpress; #HY-10,074), ARDS + BOT64 (50 mg/kg; MedChemExpress; #HY-136,741), and ARDS + PNSC928 (20 mg/kg). Mice received these compounds daily for two days. Body weight and temperature were recorded every 24 h. At 48 h post-LPS challenge, mice were sacrificed, and blood samples and lung tissues were harvested.
# To collect bronchoalveolar lavage fluid (BALF), the Control, ARDS, and ARDS + PNSC928 groups of mice (n = 10 for each group) were anesthetized with isoflurane inhalation in accordance with institutional guidelines. Mice were placed on their backs, and a small incision was made at the base of the neck to expose the trachea. A flexible catheter was inserted into the trachea and secured with a suture. A syringe filled with sterile phosphate-buffered saline (PBS) (Thermo Fisher, Shanghai, China; #10,010,023) was attached to the catheter, and 1.5 mL of PBS was gently instilled into the right lungs. After allowing the fluid to sit for 10 s, it was aspirated back into the syringe. This process was repeated three times to ensure thorough lavage. The collected BALF was kept on ice in a sterile tube, then centrifuged at 1,000 × g for 10 min at 4 °C to pellet the cells. The supernatant was stored at -80 °C for further analyses.
# Whole blood samples were allowed to stand undisturbed at room temperature for 15 min before being centrifuged at 1,000 × g for 10 min. The supernatant serum and BALF were used to measure concentrations of IL-1β, IL-6, IL-15, IL-18, and TNF-α with specific enzyme-linked immunosorbent assay (ELISA) kits as per manufacturer guidelines. The ELISA kits used were: IL-1β (Thermo Fisher; #KMC0011), IL-6 (Thermo Fisher; #KMC0061), IL-15 (Abcam; Shanghai, China; #ab275898), IL-18 (Thermo Fisher; #BMS618-3), and TNF-α (Thermo Fisher; #BMS607-3). Total BALF protein levels were measured using the BCA Protein Assay Kit (Abcam; #ab102536) according to the manufacturer’s protocol.
# MPO activity was determined according to a previously established protocol. Briefly, lung tissues (50 mg per mouse) were washed with ice-cold PBS to remove residual blood, then homogenized in a buffer containing 2.5 g of hexadecyltrimethylammonium bromide (Sigma-Aldrich; # H5882) dissolved in 500 mL of PBS. The tissue homogenate was kept on ice for 30 min before centrifugation at 16,000 × g for 10 min at 4 °C. The supernatant was used to measure MPO activity with the Myeloperoxidase Activity Assay Kit (Abcam; #ab105136) according to the manufacturer’s method.
# The right upper lobe of the lung was excised, rinsed with PBS, blotted dry, and weighed to determine the “wet” weight. […]
# [1] = ARDS mice, 25 μg LPS + 20 mg/kg PNSC928
smiles,measurement,setting,value
CC(=CCCC1=CCC(C2COC(=O)C2)OC1O)CCC1=C(C)CCCC1(C)C (stereo not shown) [PNSC928],Lung wet-to-dry weight ratio,[1],significant reduction
same,MPO activity in lung tissues,[1],significant reduction
same,Survival rate of ARDS mice,[1],enhancing the survival rate
same,Total BALF protein levels,[1],significant reduction
same,"Lung expressions of IL-1B, IL-6, IL-15, IL-18, TNFA, and IFNG (RT-qPCR)","ARDS mice, PNSC928 20 mg/kg",significantly reduced
same,"Lung expressions of S100A8, ICAM1, SPP1, FBN1, and SPSB1 (RT-qPCR)","ARDS mice, PNSC928 20 mg/kg",without notably altering
same,Serum and BALF concentrations of pro-inflammatory cytokines (ELISA),"ARDS mice, PNSC928 20 mg/kg from 4 h post-LPS, daily for two days",significantly abated
same,Serum and BALF pro-inflammatory cytokine levels in comparison to control mice,"ARDS mice, PNSC928 20 mg/kg from 4 h post-LPS, elevated vs control mice",1.3–1.5 fold
same,Decrease in body weights and respiratory distress (pO2) caused by LPS,"ARDS mice, PNSC928 20 mg/kg, measured at 0, 1, and 2 days",alleviated
same,"Lung damage by histological examination (H&E, histological scores)","LPS-challenged mice, PNSC928 20 mg/kg",recovered lung damage
